ChEMBL document CHEMBL4507299, “Data for DCP probe PF-04554878” (2021)

Experiments:
[1] = tested on: Tyrosine-protein kinase ABL1 (Homo sapiens), P00519 [F317I]
[2] = molecular target: Serine/threonine-protein kinase mTOR (Homo sapiens) (UniProt P42345)
[3] = molecular target: Serine/threonine-protein kinase PLK4 (Homo sapiens) (UniProt O00444)
[4] = molecular target: Casein kinase I isoform gamma-3 (Homo sapiens) (UniProt Q9Y6M4)
[5] = molecular target: Serine/threonine-protein kinase PAK 1 (Homo sapiens) (UniProt Q13153)
[6] = molecular target: Sodium-dependent noradrenaline transporter (Homo sapiens) (UniProt P23975); conditions: Compound concentration 10.0 uM
[7] = molecular target: Mitogen-activated protein kinase 14 (Homo sapiens) (UniProt Q16539)
[8] = molecular target: T1, Serine/threonine-protein kinase Sgk1 (Homo sapiens) (UniProt O00141)
T1 sequence (whole entry): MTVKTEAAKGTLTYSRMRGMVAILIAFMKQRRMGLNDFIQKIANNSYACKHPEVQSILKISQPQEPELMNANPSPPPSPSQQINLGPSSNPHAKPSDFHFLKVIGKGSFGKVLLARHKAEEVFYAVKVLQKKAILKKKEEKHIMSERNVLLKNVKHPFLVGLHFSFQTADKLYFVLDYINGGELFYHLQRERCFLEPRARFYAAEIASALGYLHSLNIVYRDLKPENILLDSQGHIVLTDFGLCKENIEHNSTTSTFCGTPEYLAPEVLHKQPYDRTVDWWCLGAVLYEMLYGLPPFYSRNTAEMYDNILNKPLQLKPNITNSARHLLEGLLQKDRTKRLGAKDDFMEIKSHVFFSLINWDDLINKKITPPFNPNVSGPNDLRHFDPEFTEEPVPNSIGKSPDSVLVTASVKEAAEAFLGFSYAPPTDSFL

[9] = molecular target: Cyclin-dependent kinase 4 (Homo sapiens) (UniProt P11802)
[10] = molecular target: Glycogen synthase kinase-3 alpha (Homo sapiens) (UniProt P49840)
[11] = molecular target: Activin receptor type-1-like (Homo sapiens) (UniProt P37023)
[12] = molecular target: Dual specificity tyrosine-phosphorylation-regulated kinase 1A (Homo sapiens) (UniProt Q13627)
[13] = molecular target: Serine/threonine-protein kinase Nek4 (Homo sapiens) (UniProt P51957)
[14] = molecular target: Serine/threonine-protein kinase 4 (Homo sapiens) (UniProt Q13043)
[15] = molecular target: Dual specificity mitogen-activated protein kinase kinase 5 (Homo sapiens) (UniProt Q13163)
[16] = molecular target: TGF-beta receptor type-1 (Homo sapiens) (UniProt P36897)
[17] = molecular target: Fibroblast growth factor receptor 1 (Homo sapiens) (UniProt P11362)
[18] = molecular target: Tyrosine-protein kinase FRK (Homo sapiens) (UniProt P42685)
[19] = molecular target: Serine/threonine-protein kinase pim-2 (Homo sapiens) (UniProt Q9P1W9)
[20] = molecular target: Serine/threonine-protein kinase N1 (Homo sapiens) (UniProt Q16512)
[21] = molecular target: NUAK family SNF1-like kinase 2 (Homo sapiens) (UniProt Q9H093)
[22] = molecular target: Tyrosine-protein kinase HCK (Homo sapiens) (UniProt P08631)
[23] = molecular target: Cyclin-dependent kinase 11A (Homo sapiens) (UniProt Q9UQ88)
[24] = molecular target: Phosphatidylinositol 4-kinase beta (Homo sapiens) (UniProt Q9UBF8)
[25] = molecular target: Serine/threonine-protein kinase SIK3 (Homo sapiens) (UniProt Q9Y2K2)
[26] = molecular target: Mitogen-activated protein kinase kinase kinase 13 (Homo sapiens) (UniProt O43283)
[27] = molecular target: Serine/threonine-protein kinase 26 (Homo sapiens) (UniProt Q9P289)
[28] = molecular target: BDNF/NT-3 growth factors receptor (Homo sapiens) (UniProt Q16620)
[29] = molecular target: MAP kinase-activated protein kinase 5 (Homo sapiens) (UniProt Q8IW41)
[30] = molecular target: Phosphatidylinositol 4-phosphate 5-kinase type-1 gamma (Homo sapiens) (UniProt O60331)
[31] = tested on: Epidermal growth factor receptor (Homo sapiens), P00533 [G719S]
[32] = molecular target: G protein-coupled receptor kinase 3 (Homo sapiens) (UniProt P35626)
[33] = Compound concentration 100.0 nM
[34] = Compound concentration 1000.0 nM

Chain of Serine/threonine-protein kinase N1 (Homo sapiens) (Q16512 2-942 limits assumed): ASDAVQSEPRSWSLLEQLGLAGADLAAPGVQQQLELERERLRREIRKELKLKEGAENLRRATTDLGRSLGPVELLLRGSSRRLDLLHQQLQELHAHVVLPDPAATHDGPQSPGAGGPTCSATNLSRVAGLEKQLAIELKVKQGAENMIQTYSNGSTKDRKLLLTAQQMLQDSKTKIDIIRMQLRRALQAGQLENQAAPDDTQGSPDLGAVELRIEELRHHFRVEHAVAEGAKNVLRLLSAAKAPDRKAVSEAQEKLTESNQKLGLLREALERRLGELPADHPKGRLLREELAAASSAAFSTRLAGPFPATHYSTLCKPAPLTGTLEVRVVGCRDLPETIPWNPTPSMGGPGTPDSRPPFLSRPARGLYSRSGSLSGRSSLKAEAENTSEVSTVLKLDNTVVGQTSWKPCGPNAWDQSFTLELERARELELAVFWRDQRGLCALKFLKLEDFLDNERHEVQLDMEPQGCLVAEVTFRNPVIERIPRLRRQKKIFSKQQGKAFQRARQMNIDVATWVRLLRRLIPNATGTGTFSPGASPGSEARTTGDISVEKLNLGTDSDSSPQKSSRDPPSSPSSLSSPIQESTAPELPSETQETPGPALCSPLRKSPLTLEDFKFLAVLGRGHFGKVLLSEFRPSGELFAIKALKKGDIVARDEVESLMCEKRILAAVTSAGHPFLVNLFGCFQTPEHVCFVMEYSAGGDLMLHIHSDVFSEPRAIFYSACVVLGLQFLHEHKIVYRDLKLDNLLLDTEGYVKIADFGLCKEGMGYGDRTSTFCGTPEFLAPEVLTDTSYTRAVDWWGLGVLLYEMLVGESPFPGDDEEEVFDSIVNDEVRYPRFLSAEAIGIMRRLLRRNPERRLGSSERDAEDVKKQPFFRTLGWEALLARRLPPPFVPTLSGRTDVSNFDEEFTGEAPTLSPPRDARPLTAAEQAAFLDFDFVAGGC
Chain of Serine/threonine-protein kinase PAK 1 (Homo sapiens) (Q13153 whole entry): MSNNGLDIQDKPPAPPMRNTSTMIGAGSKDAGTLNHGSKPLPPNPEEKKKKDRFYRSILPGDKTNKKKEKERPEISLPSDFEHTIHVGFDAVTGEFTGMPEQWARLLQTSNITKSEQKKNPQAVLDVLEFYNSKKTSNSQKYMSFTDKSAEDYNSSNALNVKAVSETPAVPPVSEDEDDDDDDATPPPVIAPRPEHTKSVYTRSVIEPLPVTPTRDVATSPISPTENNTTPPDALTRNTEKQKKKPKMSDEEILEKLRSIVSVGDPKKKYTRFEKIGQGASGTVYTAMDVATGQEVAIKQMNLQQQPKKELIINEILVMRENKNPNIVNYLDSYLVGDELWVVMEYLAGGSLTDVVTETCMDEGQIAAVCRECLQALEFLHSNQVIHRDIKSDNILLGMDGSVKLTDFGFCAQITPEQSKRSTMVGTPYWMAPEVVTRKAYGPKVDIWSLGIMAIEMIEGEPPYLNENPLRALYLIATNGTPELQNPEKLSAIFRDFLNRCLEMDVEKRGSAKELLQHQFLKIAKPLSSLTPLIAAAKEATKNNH
Chain of Phosphatidylinositol 4-phosphate 5-kinase type-1 gamma (Homo sapiens) (O60331 whole entry): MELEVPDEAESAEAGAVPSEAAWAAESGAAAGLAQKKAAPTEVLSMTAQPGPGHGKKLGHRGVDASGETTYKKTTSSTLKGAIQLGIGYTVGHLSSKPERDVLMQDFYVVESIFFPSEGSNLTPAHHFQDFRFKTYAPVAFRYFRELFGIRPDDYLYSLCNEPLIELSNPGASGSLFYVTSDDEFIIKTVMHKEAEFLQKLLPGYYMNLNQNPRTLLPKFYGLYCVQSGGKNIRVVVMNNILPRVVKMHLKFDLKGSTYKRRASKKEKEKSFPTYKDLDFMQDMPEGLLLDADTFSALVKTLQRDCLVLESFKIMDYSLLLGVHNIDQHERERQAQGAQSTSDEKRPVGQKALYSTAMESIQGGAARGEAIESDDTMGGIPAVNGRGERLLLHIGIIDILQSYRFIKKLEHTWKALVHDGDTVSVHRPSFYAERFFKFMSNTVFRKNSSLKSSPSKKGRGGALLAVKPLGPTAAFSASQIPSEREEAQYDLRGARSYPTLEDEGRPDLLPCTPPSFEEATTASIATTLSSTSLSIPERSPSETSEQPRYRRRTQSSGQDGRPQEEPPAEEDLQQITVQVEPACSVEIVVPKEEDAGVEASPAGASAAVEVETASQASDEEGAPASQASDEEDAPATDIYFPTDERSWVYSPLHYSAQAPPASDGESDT
Chain of Fibroblast growth factor receptor 1 (Homo sapiens) (P11362 22-822 limits assumed): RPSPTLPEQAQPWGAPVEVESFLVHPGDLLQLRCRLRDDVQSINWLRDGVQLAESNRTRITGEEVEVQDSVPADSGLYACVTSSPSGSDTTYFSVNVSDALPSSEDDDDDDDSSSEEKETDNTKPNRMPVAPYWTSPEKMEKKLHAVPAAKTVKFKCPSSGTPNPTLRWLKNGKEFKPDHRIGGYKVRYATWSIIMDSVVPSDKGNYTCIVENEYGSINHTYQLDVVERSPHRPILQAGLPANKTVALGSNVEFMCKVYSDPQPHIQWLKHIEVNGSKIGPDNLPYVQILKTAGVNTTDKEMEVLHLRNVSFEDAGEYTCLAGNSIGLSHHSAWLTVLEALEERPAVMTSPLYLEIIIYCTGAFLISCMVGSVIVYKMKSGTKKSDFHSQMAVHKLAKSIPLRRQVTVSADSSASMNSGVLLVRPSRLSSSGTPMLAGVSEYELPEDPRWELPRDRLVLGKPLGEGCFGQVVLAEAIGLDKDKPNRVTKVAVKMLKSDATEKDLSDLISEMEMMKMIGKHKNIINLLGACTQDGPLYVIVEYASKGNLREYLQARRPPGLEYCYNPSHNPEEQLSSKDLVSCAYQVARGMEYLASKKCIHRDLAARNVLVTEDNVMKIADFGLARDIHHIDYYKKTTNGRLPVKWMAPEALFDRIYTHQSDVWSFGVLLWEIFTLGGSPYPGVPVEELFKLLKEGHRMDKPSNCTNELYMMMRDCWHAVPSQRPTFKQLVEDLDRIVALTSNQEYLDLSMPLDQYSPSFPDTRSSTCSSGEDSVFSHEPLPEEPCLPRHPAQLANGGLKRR
Chain of Phosphatidylinositol 4-kinase beta (Homo sapiens) (Q9UBF8 2-816 limits assumed): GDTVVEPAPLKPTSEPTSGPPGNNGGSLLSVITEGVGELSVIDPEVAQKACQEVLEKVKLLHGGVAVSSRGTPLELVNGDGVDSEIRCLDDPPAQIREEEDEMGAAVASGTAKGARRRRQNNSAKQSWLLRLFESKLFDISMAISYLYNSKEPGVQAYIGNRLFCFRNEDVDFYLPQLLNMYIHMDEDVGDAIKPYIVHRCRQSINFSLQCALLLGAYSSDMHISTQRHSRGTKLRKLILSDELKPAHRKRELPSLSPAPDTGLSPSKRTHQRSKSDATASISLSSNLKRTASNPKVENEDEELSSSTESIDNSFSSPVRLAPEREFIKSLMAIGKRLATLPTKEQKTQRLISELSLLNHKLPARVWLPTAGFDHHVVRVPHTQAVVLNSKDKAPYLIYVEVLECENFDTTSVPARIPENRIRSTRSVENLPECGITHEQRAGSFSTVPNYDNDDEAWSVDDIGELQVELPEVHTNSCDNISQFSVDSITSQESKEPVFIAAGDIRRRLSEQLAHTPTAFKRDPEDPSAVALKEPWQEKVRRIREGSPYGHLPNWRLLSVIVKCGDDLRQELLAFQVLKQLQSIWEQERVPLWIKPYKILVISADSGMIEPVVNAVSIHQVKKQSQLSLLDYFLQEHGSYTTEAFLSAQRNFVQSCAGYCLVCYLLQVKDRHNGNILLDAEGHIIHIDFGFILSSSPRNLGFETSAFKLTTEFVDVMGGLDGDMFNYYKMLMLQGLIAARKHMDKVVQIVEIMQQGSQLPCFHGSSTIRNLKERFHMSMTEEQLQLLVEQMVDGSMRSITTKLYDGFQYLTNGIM
Chain of MAP kinase-activated protein kinase 5 (Homo sapiens) (Q8IW41 whole entry): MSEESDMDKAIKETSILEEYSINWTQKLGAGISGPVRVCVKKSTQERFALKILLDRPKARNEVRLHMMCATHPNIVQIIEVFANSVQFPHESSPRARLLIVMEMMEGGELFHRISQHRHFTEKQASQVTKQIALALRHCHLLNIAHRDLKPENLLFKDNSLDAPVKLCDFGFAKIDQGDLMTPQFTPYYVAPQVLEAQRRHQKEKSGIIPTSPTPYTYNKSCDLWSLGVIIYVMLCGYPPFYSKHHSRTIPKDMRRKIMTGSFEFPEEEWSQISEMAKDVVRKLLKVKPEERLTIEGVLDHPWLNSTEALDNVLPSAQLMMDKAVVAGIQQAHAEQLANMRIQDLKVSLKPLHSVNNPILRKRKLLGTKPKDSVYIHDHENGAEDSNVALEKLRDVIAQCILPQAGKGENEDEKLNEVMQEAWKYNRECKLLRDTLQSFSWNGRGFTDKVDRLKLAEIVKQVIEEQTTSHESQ
Chain of Tyrosine-protein kinase FRK (Homo sapiens) (P42685 whole entry): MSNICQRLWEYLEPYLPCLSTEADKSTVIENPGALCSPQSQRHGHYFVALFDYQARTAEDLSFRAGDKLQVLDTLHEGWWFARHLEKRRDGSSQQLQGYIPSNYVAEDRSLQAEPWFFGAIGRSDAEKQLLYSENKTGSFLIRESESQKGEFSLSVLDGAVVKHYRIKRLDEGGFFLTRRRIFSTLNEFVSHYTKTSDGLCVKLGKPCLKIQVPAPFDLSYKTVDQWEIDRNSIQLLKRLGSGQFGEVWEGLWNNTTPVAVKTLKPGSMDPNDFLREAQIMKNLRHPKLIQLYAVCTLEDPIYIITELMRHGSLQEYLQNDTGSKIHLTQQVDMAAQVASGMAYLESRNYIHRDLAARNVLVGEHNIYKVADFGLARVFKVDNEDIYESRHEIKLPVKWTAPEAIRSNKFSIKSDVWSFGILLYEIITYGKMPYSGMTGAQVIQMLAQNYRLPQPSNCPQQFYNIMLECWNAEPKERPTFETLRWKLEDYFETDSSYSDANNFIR
Chain of Cyclin-dependent kinase 4 (Homo sapiens) (P11802 whole entry): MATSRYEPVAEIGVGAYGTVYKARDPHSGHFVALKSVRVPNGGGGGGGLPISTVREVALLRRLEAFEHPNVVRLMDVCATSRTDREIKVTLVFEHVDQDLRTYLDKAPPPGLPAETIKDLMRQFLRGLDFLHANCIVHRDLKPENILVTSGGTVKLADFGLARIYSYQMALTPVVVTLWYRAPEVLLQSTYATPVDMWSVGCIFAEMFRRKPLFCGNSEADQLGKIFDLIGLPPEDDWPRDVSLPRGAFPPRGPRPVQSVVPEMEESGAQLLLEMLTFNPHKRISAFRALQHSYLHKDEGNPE

Which residual activity [1, 33] does the source give for CNC(=O)c1ccc(Nc2ncc(C(F)(F)F)c(NCc3nccnc3N(C)S(C)(=O)=O)n2)cc1 [DEFACTINIB] here?
The residual activity was 100%.

And the residual activity [2, 33]?
Its residual activity is 100%.

And the residual activity [3, 33]?
Its residual activity is 79%.

And the residual activity [4, 33]?
The residual activity was 100%.

What about the residual activity [5, 33] of the same compound?
Its residual activity is 75%.

What about the inhibition [6] of the same compound?
The inhibition was 7.81%.

And the residual activity [7, 33]?
The residual activity was 100%.

And the residual activity [8, 33]?
Its residual activity is 56%.

And the residual activity [9, 33]?
The residual activity was 100%.

What about the residual activity [10, 33] of the same compound?
Its residual activity is 83%.

What about the residual activity [11, 33] of the same compound?
The residual activity was 100%.

What about the residual activity [12, 33] of the same compound?
The residual activity was 71%.

And the residual activity [13, 33]?
Its residual activity is 76%.

What about the residual activity [14, 33] of the same compound?
Its residual activity is 97%.

What about the residual activity [15, 33] of the same compound?
The residual activity was 89%.

What about the residual activity [16, 33] of the same compound?
Its residual activity is 87%.

And the residual activity [17, 33]?
Its residual activity is 89%.

What about the residual activity [18, 33] of the same compound?
Its residual activity is 100%.

What about the residual activity [19, 33] of the same compound?
Its residual activity is 100%.

And the residual activity [20, 33]?
The residual activity was 100%.

What about the residual activity [21, 33] of the same compound?
Its residual activity is 53%.

What about the residual activity [22, 33] of the same compound?
Its residual activity is 100%.

And the residual activity [23, 33]?
The residual activity was 77%.

What about the residual activity [24, 33] of the same compound?
The residual activity was 99%.

What about the residual activity [25, 33] of the same compound?
The residual activity was 82%.

What about the residual activity [26, 33] of the same compound?
The residual activity was 98%.

And the residual activity [27, 33]?
Its residual activity is 95%.

What about the residual activity [28, 33] of the same compound?
Its residual activity is 21%.

What about the residual activity [29, 33] of the same compound?
Its residual activity is 76%.

What about the residual activity [30, 33] of the same compound?
The residual activity was 100%.

What about the residual activity [31, 33] of the same compound?
Its residual activity is 92%.

And the residual activity [32, 33]?
The residual activity was 80%.

CN(c1ccnc(CNc2nc(Nc3ccc4c(c3)CC(=O)N4)ncc2C(F)(F)F)n1)S(C)(=O)=O [PF-00911705] was tested. Which residual activity [1, 34] did it give?
The residual activity was 79%.

What about the residual activity [2, 34] of the same compound?
Its residual activity is 94%.

What about the residual activity [3, 34] of the same compound?
Its residual activity is 50%.

And the residual activity [4, 34]?
Its residual activity is 100%.

What about the residual activity [5, 34] of the same compound?
Its residual activity is 73%.

And the inhibition [6]?
Its inhibition is 3.15%.

What about the residual activity [7, 34] of the same compound?
The residual activity was 92%.

What about the residual activity [8, 34] of the same compound?
Its residual activity is 66%.

And the residual activity [9, 34]?
Its residual activity is 100%.

And the residual activity [10, 34]?
The residual activity was 64%.

And the residual activity [11, 34]?
The residual activity was 100%.

And the residual activity [12, 34]?
The residual activity was 19%.

What about the residual activity [13, 34] of the same compound?
Its residual activity is 84%.

And the residual activity [14, 34]?
Its residual activity is 100%.

And the residual activity [15, 34]?
The residual activity was 48%.

What about the residual activity [16, 34] of the same compound?
Its residual activity is 44%.

And the residual activity [17, 34]?
Its residual activity is 82%.

What about the residual activity [18, 34] of the same compound?
The residual activity was 93%.

And the residual activity [19, 34]?
The residual activity was 100%.

What about the residual activity [20, 34] of the same compound?
The residual activity was 43%.

And the residual activity [21, 34]?
Its residual activity is 7.6%.

What about the residual activity [22, 34] of the same compound?
The residual activity was 100%.

What about the residual activity [23, 34] of the same compound?
Its residual activity is 94%.

What about the residual activity [24, 34] of the same compound?
The residual activity was 76%.

What about the residual activity [25, 34] of the same compound?
The residual activity was 82%.

And the residual activity [26, 34]?
Its residual activity is 0%.

And the residual activity [27, 34]?
Its residual activity is 46%.

What about the residual activity [28, 34] of the same compound?
Its residual activity is 21%.

What about the residual activity [29, 34] of the same compound?
Its residual activity is 94%.

What about the residual activity [30, 34] of the same compound?
The residual activity was 91%.

And the residual activity [31, 34]?
The residual activity was 89%.

What about the residual activity [32, 34] of the same compound?
The residual activity was 91%.
